Consider five compounds from patent US10550111B2, “Pyrimidine urea compound containing isoxazolines and use thereof” (SHENYANG SINOCHEM AGROCHEMICALS R&D CO., LTD, priority 2014, dated 2020).

Type in all cases: in vivo
Test [1] deals with Abutilon theophrasti Medic. Description: Bioassay of herbicidal activity in greenhouse (further screening). The procedure, abridged: (§1)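 Plants were raised from seed under greenhouse conditions and treated with emulsifiable-concentrate compounds by track sprayer, either 24 hours after sowing or post-emergence at the 2- to 3-leaf (grass) or 2- to 4-leaf (broad-leaf) stage. Damage was assessed visually as percent growth inhibition.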

In test [2] the test system is Echinochloa crus-galli (L.) Beauv. The test is described as above. The procedure, abridged: as §1
Test [3] has as its system Setaria glauca (L.) Beauv. Described as above. Summed up:
as §1

Test [4] relates to Zinnia elegans Jacq. The test is described as above. The procedure, abridged: as §1
Test [5] deals with broad-leaf weeds and grass weeds. Description: General screening of herbicidal activity in greenhouse.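 Further: 0 means no visible effect and 100 means all weeds dead or not emerged.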 The conditions noted are these: 1000 g a.i./hm^2. Summed up:
as §1

For `CCOC(=O)C1(C)CC(c2cc(-n3c(=O)cc(C(F)(F)F)n(C)c3=O)ccc2Cl)=NO1` (stereo not drawn) [Compound 284], the results for the “Growth inhibition rate, Post-emergence treatment, Abutilon theophrasti Medic.” value in test [1] (dose 37.5 g a.i./hm^2), in test [1] (dose 150 g a.i./hm^2) and in test [1] (dose 600 g a.i./hm^2) were 95%, 100% and 100%, respectively. Besides, the results for the “Growth inhibition rate, Pre-emergence treatment, Abutilon theophrasti Medic.” value in test [1] (dose 37.5 g a.i./hm^2), in test [1] (dose 150 g a.i./hm^2) and in test [1] (dose 600 g a.i./hm^2) were 0%, 50% and 65%, respectively. Besides, the “Growth inhibition rate, Post-emergence treatment, Echinochloa crus-galli (L.) Beauv.” value in test [2] (dose 37.5 g a.i./hm^2) came out at 70%; in test [2] (dose 150 g a.i./hm^2), 80%; in test [2] (dose 600 g a.i./hm^2), 100%. In addition, the results for the “Growth inhibition rate, Pre-emergence treatment, Echinochloa crus-galli (L.) Beauv.” value in test [2] (dose 37.5 g a.i./hm^2), in test [2] (dose 150 g a.i./hm^2) and in test [2] (dose 600 g a.i./hm^2) were 0%, 10% and 20%, respectively. For the same compound, the “Growth inhibition rate, Post-emergence treatment, Setaria glauca (L.) Beauv.” value in test [3] (dose 37.5 g a.i./hm^2) is 75%; in test [3] (dose 150 g a.i./hm^2) it was 90%; in test [3] (dose 600 g a.i./hm^2), 100%. In addition, the figures for the “Growth inhibition rate, Pre-emergence treatment, Setaria glauca (L.) Beauv.” value in test [3] (dose 37.5 g a.i./hm^2), in test [3] (dose 150 g a.i./hm^2) and in test [3] (dose 600 g a.i./hm^2) were 0%, 10% and 20%, respectively. In addition, the “Growth inhibition rate, Post-emergence treatment, Zinnia elegans Jacq.” value in test [4] (dose 37.5 g a.i./hm^2), in test [4] (dose 150 g a.i./hm^2) and in test [4] (dose 600 g a.i./hm^2) was 100% throughout. The “Growth inhibition rate, Pre-emergence treatment, Zinnia elegans Jacq.” value in test [4] (dose 37.5 g a.i./hm^2) was 0%; in test [4] (dose 150 g a.i./hm^2), 10%; in test [4] (dose 600 g a.i./hm^2) it was 35%. Moreover, the “pre-emergence and post-emergence herbicidal activity against broad-leaf weeds and grass weeds” value in test [5] is reported as “good”.

In the case of `CCCCOC(=O)C1(C)CC(c2cc(-n3c(=O)cc(C(F)(F)F)n(C)c3=O)ccc2Cl)=NO1` (stereo not drawn) [Compound 286], the entries for the “Growth inhibition rate, Post-emergence treatment, Abutilon theophrasti Medic.” value in test [1] (dose 37.5 g a.i./hm^2), in test [1] (dose 150 g a.i./hm^2) and in test [1] (dose 600 g a.i./hm^2) were 90%, 100% and 100%, respectively. The “Growth inhibition rate, Pre-emergence treatment, Abutilon theophrasti Medic.” value worked out at 0% in test [1] (dose 37.5 g a.i./hm^2), 0% in test [1] (dose 150 g a.i./hm^2) and 15% in test [1] (dose 600 g a.i./hm^2). The “Growth inhibition rate, Post-emergence treatment, Echinochloa crus-galli (L.) Beauv.” value in test [2] (dose 37.5 g a.i./hm^2) was 20%; in test [2] (dose 150 g a.i./hm^2) it was 60%; in test [2] (dose 600 g a.i./hm^2), 75%. Also, the “Growth inhibition rate, Pre-emergence treatment, Echinochloa crus-galli (L.) Beauv.” value in test [2] (dose 37.5 g a.i./hm^2) is 0%; in test [2] (dose 150 g a.i./hm^2), 5%; in test [2] (dose 600 g a.i./hm^2) it was 15%. For the same compound, the figures for the “Growth inhibition rate, Post-emergence treatment, Setaria glauca (L.) Beauv.” value in test [3] (dose 37.5 g a.i./hm^2), in test [3] (dose 150 g a.i./hm^2) and in test [3] (dose 600 g a.i./hm^2) were 15%, 70% and 75%, respectively. The “Growth inhibition rate, Pre-emergence treatment, Setaria glauca (L.) Beauv.” value is reported as 0% in test [3] (dose 37.5 g a.i./hm^2), 10% in test [3] (dose 150 g a.i./hm^2) and 30% in test [3] (dose 600 g a.i./hm^2). Moreover, the “Growth inhibition rate, Post-emergence treatment, Zinnia elegans Jacq.” value in test [4] (dose 37.5 g a.i./hm^2) was found to be 85%; in test [4] (dose 150 g a.i./hm^2), 100%; in test [4] (dose 600 g a.i./hm^2), 100%. Besides, the figures for the “Growth inhibition rate, Pre-emergence treatment, Zinnia elegans Jacq.” value in test [4] (dose 37.5 g a.i./hm^2), in test [4] (dose 150 g a.i./hm^2) and in test [4] (dose 600 g a.i./hm^2) were 0%, 0% and 10%, respectively. Further, in test [5], the “pre-emergence and post-emergence herbicidal activity against broad-leaf weeds and grass weeds” value is given as “good”.

Consider `C#CCOC(=O)C1(C)CC(c2cc(-n3c(=O)cc(C(F)(F)F)n(C)c3=O)ccc2Cl)=NO1` (stereo not drawn) [Compound 290], for which the “Growth inhibition rate, Post-emergence treatment, Abutilon theophrasti Medic.” value is 85% in test [1] (dose 37.5 g a.i./hm^2), 98% in test [1] (dose 150 g a.i./hm^2) and 100% in test [1] (dose 600 g a.i./hm^2). Besides, the “Growth inhibition rate, Pre-emergence treatment, Abutilon theophrasti Medic.” value in test [1] (dose 37.5 g a.i./hm^2) was found to be 10%; in test [1] (dose 150 g a.i./hm^2), 35%; in test [1] (dose 600 g a.i./hm^2) it was 60%. Besides, the “Growth inhibition rate, Post-emergence treatment, Echinochloa crus-galli (L.) Beauv.” value was determined as 25% in test [2] (dose 37.5 g a.i./hm^2), 65% in test [2] (dose 150 g a.i./hm^2) and 70% in test [2] (dose 600 g a.i./hm^2). The results for the “Growth inhibition rate, Pre-emergence treatment, Echinochloa crus-galli (L.) Beauv.” value in test [2] (dose 37.5 g a.i./hm^2), in test [2] (dose 150 g a.i./hm^2) and in test [2] (dose 600 g a.i./hm^2) were 0%, 0% and 20%, respectively. Moreover, the figures for the “Growth inhibition rate, Post-emergence treatment, Setaria glauca (L.) Beauv.” value in test [3] (dose 37.5 g a.i./hm^2), in test [3] (dose 150 g a.i./hm^2) and in test [3] (dose 600 g a.i./hm^2) were 40%, 75% and 85%, respectively. For the same compound, the “Growth inhibition rate, Pre-emergence treatment, Setaria glauca (L.) Beauv.” value in test [3] (dose 37.5 g a.i./hm^2) is listed as 0%; in test [3] (dose 150 g a.i./hm^2) it was 10%; in test [3] (dose 600 g a.i./hm^2) it was 25%. Also, the figures for the “Growth inhibition rate, Post-emergence treatment, Zinnia elegans Jacq.” value in test [4] (dose 37.5 g a.i./hm^2), in test [4] (dose 150 g a.i./hm^2) and in test [4] (dose 600 g a.i./hm^2) were 75%, 100% and 100%, respectively. The entries for the “Growth inhibition rate, Pre-emergence treatment, Zinnia elegans Jacq.” value in test [4] (dose 37.5 g a.i./hm^2), in test [4] (dose 150 g a.i./hm^2) and in test [4] (dose 600 g a.i./hm^2) were 0%, 0% and 20%, respectively. For the same compound, the “pre-emergence and post-emergence herbicidal activity against broad-leaf weeds and grass weeds” value in test [5] is recorded as “good”.

Take `Cn1c(C(F)(F)F)cc(=O)n(-c2cc(C3=NOC(C)(C(=O)OCC(F)(F)F)C3)c(Cl)cc2F)c1=O` (stereo not drawn) [Compound 396]: the “Growth inhibition rate, Post-emergence treatment, Abutilon theophrasti Medic.” value in test [1] (dose 7.5 g a.i./hm^2) was found to be 98%; in test [1] (dose 15 g a.i./hm^2), 100%; in test [1] (dose 30.0 g a.i./hm^2), 100%; in test [1] (dose 60.0 g a.i./hm^2), 100%; in test [1] (dose 120.0 g a.i./hm^2), 100%. The “Growth inhibition rate, Post-emergence treatment, Echinochloa crus-galli (L.) Beauv.” value in test [2] (dose 7.5 g a.i./hm^2) was 20%; in test [2] (dose 15 g a.i./hm^2), 55%; in test [2] (dose 30.0 g a.i./hm^2) it was 95%; in test [2] (dose 60.0 g a.i./hm^2), 100%; in test [2] (dose 120.0 g a.i./hm^2) it was 100%. For the same compound, the “Growth inhibition rate, Post-emergence treatment, Setaria glauca (L.) Beauv.” value in test [3] (dose 7.5 g a.i./hm^2) stood at 25%; in test [3] (dose 15 g a.i./hm^2) it was 55%; in test [3] (dose 30.0 g a.i./hm^2), 85%; in test [3] (dose 60.0 g a.i./hm^2) it was 98%; in test [3] (dose 120.0 g a.i./hm^2), 100%. Moreover, the “Growth inhibition rate, Post-emergence treatment, Zinnia elegans Jacq.” value in test [4] (dose 7.5 g a.i./hm^2) came out at 30%; in test [4] (dose 15 g a.i./hm^2) it was 60%; in test [4] (dose 30.0 g a.i./hm^2), 75%; in test [4] (dose 60.0 g a.i./hm^2), 100%; in test [4] (dose 120.0 g a.i./hm^2), 100%. In addition, in test [5], the “pre-emergence and post-emergence herbicidal activity against broad-leaf weeds and grass weeds” value is listed as “good”.

As for `CC(C)COC(=O)C1(C)CC(c2cc(-n3c(=O)cc(C(F)(F)F)n(C)c3=O)c(F)cc2Cl)=NO1` (stereo not drawn) [Compound 397], the “Growth inhibition rate, Post-emergence treatment, Abutilon theophrasti Medic.” value in test [1] (dose 7.5 g a.i./hm^2) is 98%; in test [1] (dose 15 g a.i./hm^2), 100%; in test [1] (dose 30.0 g a.i./hm^2) it was 100%; in test [1] (dose 60.0 g a.i./hm^2), 100%; in test [1] (dose 120.0 g a.i./hm^2) it was 100%. Further, the “Growth inhibition rate, Post-emergence treatment, Echinochloa crus-galli (L.) Beauv.” value in test [2] (dose 7.5 g a.i./hm^2) is on record as 45%; in test [2] (dose 15 g a.i./hm^2), 65%; in test [2] (dose 30.0 g a.i./hm^2), 100%; in test [2] (dose 60.0 g a.i./hm^2), 100%; in test [2] (dose 120.0 g a.i./hm^2), 100%. The “Growth inhibition rate, Post-emergence treatment, Setaria glauca (L.) Beauv.” value stood at 55% in test [3] (dose 7.5 g a.i./hm^2); 75% in test [3] (dose 15 g a.i./hm^2); 85% in test [3] (dose 30.0 g a.i./hm^2); 100% in test [3] (dose 60.0 g a.i./hm^2); 100% in test [3] (dose 120.0 g a.i./hm^2). The “Growth inhibition rate, Post-emergence treatment, Zinnia elegans Jacq.” value in test [4] (dose 7.5 g a.i./hm^2) stood at 60%; in test [4] (dose 15 g a.i./hm^2), 85%; in test [4] (dose 30.0 g a.i./hm^2), 95%; in test [4] (dose 60.0 g a.i./hm^2) it was 100%; in test [4] (dose 120.0 g a.i./hm^2), 100%. Further, in test [5], the “pre-emergence and post-emergence herbicidal activity against broad-leaf weeds and grass weeds” value is on record as “good”.
